In PubChem BioAssay (NCI):
“And” between values parts separate entries of the source, which are not always exact repeats. Identical values can stand only once.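 1) Cells in 96-well plates. 2) Compound, 48 h, 5 concentrations. 3) Linear interpolation between surrounding doses. 4) Unreached endpoint = highest concentration. GI50 = concentration required for 50% inhibition of growth. TGI: concentration producing complete growth inhibition.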

How the values were obtained:
Test in all cases: NCI tumour cell line growth inhibition, 48 h
[1] = system: HCT-116 colon
[2] = system: EKVX NSCLC
[3] = system: UACC-62 melanoma
[4] = system: NCI/ADR-RES ovarian
[5] = system: BT-549 breast
[6] = system: NCI-H522 lung
[7] = system: DU-145 prostate
[8] = system: MALME-3M melanoma
[9] = system: A549 NSCLC
[10] = system: CAKI-1 renal

SMILES	TGI [1]	TGI [2]	TGI [3]	TGI [4]	TGI [5]	TGI [6]	TGI [7]	TGI [8]	TGI [9]	TGI [10]	GI50 [1]	GI50 [2]	GI50 [3]	GI50 [4]	GI50 [5]	GI50 [6]	GI50 [7]	GI50 [8]	GI50 [9]	GI50 [10]
O=C(C#Cc1ccccc1)C1=Cc2ccccc2OC1	4.21 µM	6.12 µM	4.26 µM	14.4 µM	5.16 µM	3.42 µM	20.7 µM	13.2 µM	> 37.6 µM	3.47 µM										
O=C(CI)Nc1ccc(O)c2ccccc12	1.16 µM	8.59 µM	3.44 µM	14.8 µM	6.25 µM	0.297 µM	3.87 µM	1.16 µM	13.7 µM	1.84 µM	0.481 µM	2.52 µM	1.67 µM	2.97 µM	2.28 µM	0.142 µM	1.88 µM	0.547 µM	3.56 µM	0.69 µM
CCC1(OC(=O)CN)C(=O)OCc2c1cc1n(c2=O)Cc2cc3ccccc3nc2-1 (stereo unspecified)	0.265 µM and 0.431 µM	17.4 µM	0.0895 µM and 0.0596 µM	0.137 µM and 0.0776 µM		0.59 µM and 0.624 µM	0.551 µM	0.802 µM and 3.75 µM	2.28 µM		0.0519 µM and 0.0222 µM	0.164 µM	0.00787 µM	0.0173 µM	0.459 µM	0.0362 µM	0.00536 µM	0.196 µM	0.0472 µM	0.00739 µM
Cc1c(N)nc(C(CC(N)=O)NCC(N)C(N)=O)nc1C(=O)NC(C(=O)NC(C)C(O)C(C)C(=O)NC(C(=O)NCCc1nc(-c2nc(C(=O)NCCCNC(C)c3ccccc3)cs2)cs1)C(C)O)C(OC1OC(CO)C(O)C(O)C1OC1OC(CO)C(O)C(OC(N)=O)C1O)c1cnc[nH]1 (stereo unspecified)	49.4 µM and > 100 µM	50 µM and > 100 µM	8.82 µM	45.5 µM	50 µM	20 µM and 44.3 µM	39.2 µM and 55 µM	37.2 µM and > 100 µM	50 µM and > 100 µM		1.76 µM	> 100 µM				4.1 µM	10.5 µM	1.84 µM	0.63 µM	2 µM
CC(=O)/C=C/C1=C(c2csc3ccccc23)c2ccccc2CC1	95 µM	> 100 µM	30.5 µM	72.7 µM	55 µM	67.9 µM	> 100 µM	55.4 µM	> 100 µM	> 100 µM	6.16 µM	30.4 µM	12.8 µM	21.8 µM	22.9 µM	14.2 µM	29.4 µM	21.7 µM	24 µM	32.4 µM
C[C@H]1CNC(=O)c2cnn3ccc(nc23)N[C@H](C)c2cc(F)ccc2O1	16.9 µM	> 75.4 µM	39 µM	47.4 µM	2.52 µM	24.4 µM	12.8 µM	> 100 µM	16.4 µM	1.59 µM	0.559 µM	1.24 µM	2.32 µM	8.63 µM	1.1 µM	2.43 µM	2.26 µM	16.6 µM	0.937 µM	0.343 µM
CC(C)c1cccc(O)c(=O)c1	> 75 µg/mL and > 40.2 µM		28.6 µg/mL and > 41.3 µM	> 75 µg/mL	42.4 µg/mL	28 µg/mL and > 73.1 µM	24.7 µg/mL	48.3 µg/mL and > 81.2 µM	> 75 µg/mL and > 74.5 µM		3.81 µg/mL	1.45 µg/mL	4.17 µg/mL	4.5 µg/mL	3.57 µg/mL	5.16 µg/mL	2.1 µg/mL	9.77 µg/mL	2.42 µg/mL	2.97 µg/mL
COC(=O)c1c2c(c(C)[n+]([O-])c1C)C(=O)C=C(NCc1cccc(Cl)c1)C2=O	0.976 µM	2.15 µM	0.459 µM	1.79 µM	2.63 µM	1.7 µM	2.18 µM	0.309 µM	2.22 µM	1.95 µM	0.284 µM	0.762 µM	0.0741 µM	0.307 µM	1.26 µM	0.261 µM	0.821 µM	0.136 µM	0.462 µM	0.204 µM
COC(=O)Nc1nc2ccc(C(=O)c3ccccc3)cc2[nH]1	50.8 µM and > 36.2 µM	> 100 µM	> 100 µM		> 100 µM and 52.1 µM	2.36 µM	22.6 µM and 3 µM	> 100 µM	> 100 µM	> 100 µM	0.47 µM and 0.353 µM		0.476 µM and 0.463 µM	0.346 µM and 0.357 µM	1.2 µM and 3.27 µM	0.317 µM and 0.323 µM	1.06 µM and 0.259 µM	0.559 µM and 0.201 µM	0.605 µM and 0.534 µM	0.469 µM and 0.347 µM
CCCCCCCCCCCCCCCCOP(=O)([O-])OCC[N+](C)(C)C		11.1 µM and 58.6 µM		23.2 µM and 58.7 µM	5.87 µM and 17.8 µM		14.7 µM and 39.9 µM	12.6 µM and 52.7 µM		2.99 µM and 27.7 µM	1.49 µM	2.63 µM	1.34 µM	11.1 µM	1.63 µM	0.885 µM	4.01 µM	3.1 µM	1.6 µM	0.931 µM
Cn1c(-c2ccccc2)c(/C=C/C2=[N+](C)c3ccccc3C2(C)C)c2ccccc21	7.11 µM	10.4 µM	3.97 µM	72.3 µM	3.71 µM	3.78 µM	12.7 µM	3.1 µM	12.8 µM	5.08 µM	0.593 µM	0.397 µM	0.6 µM	9.8 µM	0.476 µM	0.863 µM	1.87 µM	0.68 µM	1.73 µM	1.81 µM
C[C@]12CC[C@H]3[C@@H](CC4SC(N)=NC45C/C(=N/NC(N)=O)CC[C@]35C)[C@@H]1CCC2=O (stereo partly specified)	4.35 µM	3.63 µM	3.13 µM	3.87 µM	8.91 µM	4.06 µM	3.41 µM	3.49 µM	3.89 µM	3.64 µM	2.09 µM	1.8 µM	1.63 µM	1.94 µM	2.84 µM	1.93 µM	1.75 µM	1.76 µM	2.02 µM	1.77 µM
O=CN1N=C(c2cccc(Nc3ccnc4cc(Cl)ccc34)c2)CC1c1ccccc1 (stereo unspecified)	1.63 µM	> 100 µM	21.8 µM	1.17 µM	1.51 µM	0.633 µM	16.8 µM	> 100 µM	> 26.2 µM	7.54 µM	0.364 µM	0.949 µM	0.444 µM	0.29 µM	0.207 µM	0.185 µM	0.44 µM	0.373 µM	0.501 µM	0.348 µM
C=C1SC(=Nc2ccccc2Cl)N(C(=O)c2sc3ccccc3c2Cl)C12CCCCC2	> 100 µM	> 100 µM	> 100 µM	> 100 µM	> 100 µM	> 100 µM	> 100 µM	> 100 µM	> 100 µM	> 100 µM	7.61 µM	3.2 µM	22.8 µM	3.51 µM	70.4 µM	4.23 µM	6.2 µM	29.2 µM	4.31 µM	3.05 µM
Nc1nc(SCc2ccccc2Cl)cc(C(=O)O)n1	> 100 µM	> 100 µM	> 100 µM	> 100 µM	> 100 µM	> 100 µM	> 100 µM	> 100 µM	> 100 µM	> 100 µM										
Nc1nc2cc(CC[C@H]3C[C@@H](n4ccc5c(N)ncnc54)[C@H](O)[C@@H]3O)ccc2cc1Br	19.9 µM	22 µM	21.7 µM	26.9 µM	16 µM	28.8 µM	27 µM	21.5 µM	34.3 µM	21.9 µM	2.45 µM	4.22 µM	8.95 µM	10.5 µM	2.41 µM	9.26 µM	13.1 µM	7.42 µM	12.4 µM	4.38 µM
C[C@H]1COCCN1c1cc(C2(S(=O)(=O)C3CC3)CC2)nc(-c2ccc(NC(=S)NCCO)cc2)n1	21.4 µM	3.76 µM	0.0883 µM	47.8 µM	0.134 µM	64.8 µM	> 100 µM	0.0437 µM	4.35 µM	10.2 µM	0.0985 µM	0.0267 µM	< 0.01 µM	1.93 µM	< 0.012 µM	0.0215 µM	0.0919 µM	< 0.01 µM	0.0782 µM	0.139 µM
COc1ccc2c(c1OC)C(C(Cl)(Cl)Cl)N1CCc3cc4c(cc3C1=C2)OCO4 (stereo unspecified)	27.9 µM	> 100 µM	30.5 µM	> 100 µM	8.63 µM	35.1 µM	84.7 µM	37.3 µM	> 100 µM	> 100 µM										
